Each structure is given as a SMILES string. Changes are numbered by the printed parent chain.

Common to all, as to experiment: liposome lipid transfer, NBD dequenching
What all share (assay type): biochemical

Test [1] addresses T1, Ups1–Mdm35 (Saccharomyces cerevisiae, UniProt Q05776, E108D).
T1 construct: N-terminally His-tagged Ups1 with Mdm35, E. coli S30 cell-free expression; heterodimer; with Mitochondrial distribution and morphology protein 35
T1 sequence (Q05776 1-175 E108D): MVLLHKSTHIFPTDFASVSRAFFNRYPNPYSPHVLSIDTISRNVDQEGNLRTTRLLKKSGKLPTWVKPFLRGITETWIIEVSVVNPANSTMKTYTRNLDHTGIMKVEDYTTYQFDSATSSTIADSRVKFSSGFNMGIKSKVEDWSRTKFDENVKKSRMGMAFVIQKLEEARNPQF
T1 sequence (O60200 1-86 partner): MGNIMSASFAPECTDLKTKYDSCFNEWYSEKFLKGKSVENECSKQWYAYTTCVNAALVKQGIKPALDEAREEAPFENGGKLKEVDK
To be noted: labelled compound; 50 nM complex, 12.5 µM donor and 50 µM acceptor liposomes, pH 7.4, 20 °C.

The target in test [2] is T2, Ups1–Mdm35 (Saccharomyces cerevisiae, UniProt Q05776, K58V).
T2 construct: N-terminally His-tagged Ups1 with Mdm35, E. coli S30 cell-free expression; heterodimer; with Mitochondrial distribution and morphology protein 35
T2 sequence (Q05776 1-175 K58V): T1 sequence (Q05776 1-175 E108D) with K58V, D108E
T2 sequence (O60200 1-86 partner): T1 sequence (O60200 1-86 partner)
The following applies: labelled compound; 50 nM complex, 12.5 µM donor and 50 µM acceptor liposomes, pH 7.4, 20 °C.

In test [3] the target is T3, Ups1–Mdm35 (Saccharomyces cerevisiae, UniProt Q05776).
T3 construct: N-terminally His-tagged Ups1 with Mdm35, E. coli S30 cell-free expression; heterodimer; with Mitochondrial distribution and morphology protein 35
T3 sequence (Q05776 1-175): T1 sequence (Q05776 1-175 E108D) with D108E
T3 sequence (O60200 1-86 partner): T1 sequence (O60200 1-86 partner)
To be noted: labelled compound, 12.5 µM donor and 50 µM acceptor liposomes, pH 7.4, 20 °C.

The target of test [4] is T4, PRELID1–TRIAP1 (Homo sapiens, UniProt Q9Y255, K58V).
T4 construct: N-His-tagged PRELID1 co-expressed with TRIAP1 from pETDuet-1 in E. coli; heterodimer
T4 sequence (Q9Y255 whole entry K58V): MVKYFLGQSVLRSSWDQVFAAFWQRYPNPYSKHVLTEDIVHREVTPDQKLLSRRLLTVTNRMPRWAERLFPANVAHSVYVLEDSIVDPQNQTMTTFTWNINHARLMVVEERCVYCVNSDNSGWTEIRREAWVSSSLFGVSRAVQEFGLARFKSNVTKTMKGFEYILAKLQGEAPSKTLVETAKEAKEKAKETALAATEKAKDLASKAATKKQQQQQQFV
T4 sequence (O43715 whole entry partner): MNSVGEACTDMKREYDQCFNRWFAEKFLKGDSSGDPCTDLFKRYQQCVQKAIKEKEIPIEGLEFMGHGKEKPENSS
To be noted: labelled compound; 120 nM complex, 12.5 µM donor and 50 µM acceptor liposomes, pH 7.4, 20 °C.

The target in test [5] is T5, PRELID1–TRIAP1 (Homo sapiens, UniProt Q9Y255, K58T).
T5 construct: N-His-tagged PRELID1 co-expressed with TRIAP1 from pETDuet-1 in E. coli; heterodimer
T5 sequence (Q9Y255 whole entry K58T): as the sequence (Q9Y255 whole entry K58V) above, with V58T counted along it
T5 sequence (O43715 whole entry partner): as the sequence (O43715 whole entry partner) above
To be noted: labelled compound; 120 nM complex, 12.5 µM donor and 50 µM acceptor liposomes, pH 7.4, 20 °C.

Test [6] addresses T6, PRELID1–TRIAP1 (Homo sapiens, UniProt Q9Y255).
T6 construct: N-His-tagged PRELID1 co-expressed with TRIAP1 from pETDuet-1 in E. coli; heterodimer
The following applies: labelled compound, 12.5 µM donor and 50 µM acceptor liposomes, pH 7.4, 20 °C.

Test [7] has as its target T7, Ups2 loop-swap variant (Saccharomyces cerevisiae, UniProt P35200).
T7 construct: N-His Ups2Δ174 carrying the Ups1 Omega loop (residues 60-71), codon-optimised, with Mdm35, E. coli Rosetta-gami2; with Mitochondrial distribution and morphology protein 35
T7 sequence (P35200 1-174): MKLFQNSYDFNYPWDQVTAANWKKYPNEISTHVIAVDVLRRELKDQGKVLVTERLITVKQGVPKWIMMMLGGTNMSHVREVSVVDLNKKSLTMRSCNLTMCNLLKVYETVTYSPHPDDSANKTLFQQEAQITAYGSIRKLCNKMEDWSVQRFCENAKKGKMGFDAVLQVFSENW
T7 sequence (O60200 1-86 partner): T1 sequence (O60200 1-86 partner)
The following applies: labelled compound; 50 nM complex, 12.5 µM donor and 50 µM acceptor liposomes, pH 7.4, 25 °C.

The target in test [8] is T8, Ups2Δ174–Mdm35 (Saccharomyces cerevisiae, UniProt P35200).
T8 construct: gene UPS2; N-His Ups2 truncated after W174, with Mdm35, E. coli Rosetta-gami2; with Mitochondrial distribution and morphology protein 35
T8 sequence (P35200 1-174): T7 sequence (P35200 1-174)
T8 sequence (O60200 1-86 partner): T1 sequence (O60200 1-86 partner)
To be noted: labelled compound, 50 nM complex, 12.5 µM donor and 50 µM acceptor liposomes, pH 7.4, 25 °C.

T6 sequence (Q9Y255 whole entry): as the sequence (Q9Y255 whole entry K58V) above, with V58K counted along it
T6 sequence (O43715 whole entry partner): as the sequence (O43715 whole entry partner) above

Regarding `CCCCCCCC/C=C\CCCCCCCC(=O)OC[C@H](COP(=O)(O)OC[C@H](N)C(=O)O)OC(=O)CCCCCCCCCCCNc1ccc([N+](=O)[O-])c2nonc12` [NBD-PS], the “liposome lipid transfer, NBD dequenching” value in test [1] is recorded as “The mutations K58V or E108D in Ups1 increased PS transport”; in test [2], “The mutations K58V or E108D in Ups1 increased PS transport”; in test [3] (50 nM complex, inefficient substrate), “Ups1–Mdm35 complexes transferred PS only inefficiently when compared to PA”; in test [4], “substitution of K58 by valine or threonine substantially increased the ability of PRELID1”; in test [5], “substitution of K58 by valine or threonine substantially increased the ability of PRELID1”; in test [6] (120 nM complex, low activity), “PRELID1 showed a low PS transfer activity, similar to Ups1”. Also, the “liposome lipid transfer, NBD dequenching” value in test [7] is “its ability to transfer PS was significantly reduced”; in test [8] it was “PS transfer by Ups2 and loop-swap variant”.
With `CCCCCCCC/C=C\CCCCCCCC(=O)OC[C@H](COP(=O)(O)O)OC(=O)CCCCCCCCCCCNc1ccc([N+](=O)[O-])c2nonc12` [NBD-PA], the “liposome lipid transfer, NBD dequenching” value was “PA transfer of wildtype (WT) and mutant Ups1–Mdm35 complexes in vitro” in test [3] (12.5 nM complex); “While efficiently mediating the transfer of PA, PRELID1 showed a low PS transfer activity” in test [6]; “we observed efficient PA transport by the loop-swap variant of Ups2” in test [7]; “Ups2–Mdm35 complexes transferred PA only inefficiently when compared to PS” in test [8] (inefficient substrate).

These data come from PMC6408443, “Structural determinants of lipid specificity within Ups/PRELI lipid transfer proteins” (Nature Communications, 2019).
